How the values were obtained:
Assay in all cases: KRas binding assay, TR-FRET displacement of Cy5 labelled tracer
Conditions in all cases: 60-minute incubation at room temperature, 1% DMSO, pH 7.5
KRas G12C = molecular target: T1, KRas G12C (Homo sapiens, UniProt P01116, G12C)
T1 construct: Biotinylated KRas (corresponding to amino acids 1-169, produced at Accelegan Inc.); biotin (biotinylated); purchased Accelegan Inc
Method: (§1) This Example illustrates that exemplary compounds of the present invention bind to KRas and are capable of displacing a labeled tracer ligand occupying the KRas binding site. KRas^WT, KRas^G12A, KRas^G12C, KRas^G12D, KRas^G12R, KRas^G12S, KRas^G12V, KRas^G13D, or KRas^Q61H was used in the assay.
(§2) The ability of a compound to bind to KRas was measured using a TR-FRET displacement assay. Biotinylated KRas (corresponding to amino acids 1-169, produced at Accelegan Inc.) was incubated with custom made Cy5 labelled tracer, terbium streptavidin (Cisbio Inc.) and compound (1% DMSO final) in buffer (50 mM HEPES, pH 7.5, 5 mM MgCl2, 0.005% Tween-20 and 1 mM DTT). After a 60-minute incubation at room temperature, the reaction was measured using a BMG LABTECH CLARIO star Plus via TR-FRET. […] The POC values were fit to a 4-parameter IC50 equation and the IC50 value reported.

KRas G12S = molecular target: T2, KRas G12S (Homo sapiens, UniProt P01116, G12S)
T2 construct: Biotinylated KRas (corresponding to amino acids 1-169, produced at Accelegan Inc.); biotin (biotinylated); purchased Accelegan Inc
Method: as §1, §2

KRas WT = molecular target: T3, KRas WT (Homo sapiens, UniProt P01116)
T3 construct: Biotinylated KRas (corresponding to amino acids 1-169, produced at Accelegan Inc.); biotin (biotinylated); purchased Accelegan Inc
Method: as §1, §2

T2 sequence (P01116 1-169 isoform P01116-2 G12S): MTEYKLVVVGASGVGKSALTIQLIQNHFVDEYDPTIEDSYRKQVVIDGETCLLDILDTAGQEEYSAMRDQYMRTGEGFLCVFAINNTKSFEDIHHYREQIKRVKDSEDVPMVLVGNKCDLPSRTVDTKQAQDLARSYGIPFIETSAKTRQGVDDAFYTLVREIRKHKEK
T3 sequence (P01116 1-169 isoform P01116-2): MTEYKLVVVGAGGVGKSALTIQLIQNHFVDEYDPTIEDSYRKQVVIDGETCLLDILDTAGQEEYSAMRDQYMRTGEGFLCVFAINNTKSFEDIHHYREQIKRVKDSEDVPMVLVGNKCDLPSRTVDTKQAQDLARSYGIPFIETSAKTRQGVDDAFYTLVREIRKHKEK
T1 sequence (P01116 1-169 isoform P01116-2 G12C): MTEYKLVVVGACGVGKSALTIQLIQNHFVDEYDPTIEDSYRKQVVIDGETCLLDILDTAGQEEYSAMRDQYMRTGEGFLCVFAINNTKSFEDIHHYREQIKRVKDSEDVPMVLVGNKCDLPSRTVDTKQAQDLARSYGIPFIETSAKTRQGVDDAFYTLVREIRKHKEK

IC50 (KRas G12C) [nM]	IC50 (KRas G12S) [nM]	IC50 (KRas WT) [nM]	Compound
194	32800	> 100000	O=C(Oc1c(F)cccc1F)C1CCN(c2nc(OCC34CCCN3CCC4)nc3c(F)c(-c4cccc5cccc(F)c45)ncc23)CC1 [Example 30, 2,6-difluorophenyl 1-(8-fluoro-7-(8-fluoronaphthalen-1-yl)-2-((tetrahydro-1H-pyrrolizin-7a(5H)-yl)methoxy)pyrido[4,3-d]pyrimidin-4-yl)piperidine-4-carboxylate]
27300	98800	14700	N#Cc1ccc(OC(=O)[C@@H]2[C@@H]3CC[C@H]2CN(c2nc(OCC45CCCN4CCC5)nc4c(F)c(-c5cccc6cccc(F)c56)ncc24)C3)cc1 [Example 20, 4-cyanophenyl (1R,5S,8r)-3-(8-fluoro-7-(8-fluoronaphthalen-1-yl)-2-((tetrahydro-1H-pyrrolizin-7a(5H)-yl)methoxy)pyrido[4,3-d]pyrimidin-4-yl)-3-azabicyclo[3.2.1]octane-8-carboxylate]
424	42100	> 100000	O=C(Oc1ccc(F)c(F)c1)C1CCN(c2nc(OCC34CCCN3CCC4)nc3c(F)c(-c4cccc5cccc(F)c45)ncc23)CC1 [Example 43, 3,4-difluorophenyl 1-(8-fluoro-7-(8-fluoronaphthalen-1-yl)-2-((tetrahydro-1H-pyrrolizin-7a(5H)-yl)methoxy)pyrido[4,3-d]pyrimidin-4-yl)piperidine-4-carboxylate]
8160	3840	9270	O=C(C1CCN(c2nc(OCC34CCCN3CCC4)nc3c(F)c(-c4cccc5cccc(F)c45)ncc23)CC1)n1cccn1 [Example 11, (1-(8-fluoro-7-(8-fluoronaphthalen-1-yl)-2-((tetrahydro-1H-pyrrolizin-7a(5H)-yl)methoxy)pyrido[4,3-d]pyrimidin-4-yl)piperidin-4-yl)(1H-pyrazol-1-yl)methanone]
321	47500	92600	O=C(Oc1ccccc1F)C1CCN(c2nc(OCC34CCCN3CCC4)nc3c(F)c(-c4cccc5cccc(F)c45)ncc23)CC1 [Example 35, 2-fluorophenyl 1-(8-fluoro-7-(8-fluoronaphthalen-1-yl)-2-((tetrahydro-1H-pyrrolizin-7a(5H)-yl)methoxy)pyrido[4,3-d]pyrimidin-4-yl)piperidine-4-carboxylate]
> 100000	> 100000	39400	O=C(OCC(F)(F)F)C1CCN(c2nc(OCC34CCCN3CCC4)nc3c(F)c(-c4cccc5cccc(F)c45)ncc23)CC1 [Example 31, 2,2,2-trifluoroethyl 1-(8-fluoro-7-(8-fluoronaphthalen-1-yl)-2-((tetrahydro-1H-pyrrolizin-7a(5H)-yl)methoxy)pyrido[4,3-d]pyrimidin-4-yl)piperidine-4-carboxylate]
30600	31500	64600	Cc1cc(C)n(C(=O)C2CCN(c3nc(OCC45CCCN4CCC5)nc4c(F)c(-c5cccc6cccc(F)c56)ncc34)CC2)n1 [Example 9, (3,5-dimethyl-1H-pyrazol-1-yl)(1-(8-fluoro-7-(8-fluoronaphthalen-1-yl)-2-((tetrahydro-1H-pyrrolizin-7a(5H)-yl)methoxy)pyrido[4,3-d]pyrimidin-4-yl)piperidin-4-yl)methanone]
6810	27100	20200	O=C(Oc1ccccc1F)C1CCCN(c2nc(OCC34CCCN3CCC4)nc3c(F)c(-c4cccc5cccc(F)c45)ncc23)C1 (stereo not drawn) [Example 52, 2-fluorophenyl 1-(8-fluoro-7-(8-fluoronaphthalen-1-yl)-2-((tetrahydro-1H-pyrrolizin-7a(5H)-yl)methoxy)pyrido[4,3-d]pyrimidin-4-yl)piperidine-3-carboxylate]
> 100000	> 100000	> 100000	COC(=O)[C@H]1CCN(c2nc(OCC34CCCN3CCC4)nc3c(F)c(-c4cccc5cccc(F)c45)ncc23)C[C@H]1O [Example 46, methyl (3S,4S)-1-(8-fluoro-7-(8-fluoronaphthalen-1-yl)-2-((tetrahydro-1H-pyrrolizin-7a(5H)-yl)methoxy)pyrido[4,3-d]pyrimidin-4-yl)-3-hydroxypiperidine-4-carboxylate]
201	> 100000	90500	N#Cc1ccc(OC(=O)C2CCN(c3nc(OCC45CCCN4CCC5)nc4c(F)c(-c5cccc6cccc(F)c56)ncc34)CC2)cc1 [Example 29, 4-cyanophenyl 1-(8-fluoro-7-(8-fluoronaphthalen-1-yl)-2-((tetrahydro-1H-pyrrolizin-7a(5H)-yl)methoxy)pyrido[4,3-d]pyrimidin-4-yl)piperidine-4-carboxylate]
7570	26500	34400	O=C(Oc1c(F)cccc1F)[C@@H]1[C@@H]2C[C@H]1CN(c1nc(OCC34CCCN3CCC4)nc3c(F)c(-c4cccc5cccc(F)c45)ncc13)C2 [Example 5, 2,6-difluorophenyl (1R,5S,6r)-3-(8-fluoro-7-(8-fluoronaphthalen-1-yl)-2-((tetrahydro-1H-pyrrolizin-7a(5H)-yl)methoxy)pyrido[4,3-d]pyrimidin-4-yl)-3-azabicyclo[3.1.1]heptane-6-carboxylate]
724	74700	> 100000	N#Cc1cccc(OC(=O)C2CCN(c3nc(OCC45CCCN4CCC5)nc4c(F)c(-c5cccc6cccc(F)c56)ncc34)CC2)c1 [Example 28, 3-cyanophenyl 1-(8-fluoro-7-(8-fluoronaphthalen-1-yl)-2-((tetrahydro-1H-pyrrolizin-7a(5H)-yl)methoxy)pyrido[4,3-d]pyrimidin-4-yl)piperidine-4-carboxylate]
18900	> 100000	> 100000	O=C(Oc1ccc(F)c(F)c1)[C@H]1CCN(c2nc(OCC34CCCN3CCC4)nc3c(F)c(-c4cccc5cccc(F)c45)ncc23)C[C@H]1O [Example 36, 3,4-difluorophenyl (3S,4S)-1-(8-fluoro-7-(8-fluoronaphthalen-1-yl)-2-((tetrahydro-1H-pyrrolizin-7a(5H)-yl)methoxy)pyrido[4,3-d]pyrimidin-4-yl)-3-hydroxypiperidine-4-carboxylate]
761	27900	19300	O=CC1CCN(c2nc(OCC34CCCN3CCC4)nc3c(F)c(-c4cccc5cccc(F)c45)ncc23)CC1 [Example 38, 1-(8-fluoro-7-(8-fluoronaphthalen-1-yl)-2-((tetrahydro-1H-pyrrolizin-7a(5H)-yl)methoxy)pyrido[4,3-d]pyrimidin-4-yl)piperidine-4-carbaldehyde]
1080	15300	5780	O=C[C@@H]1[C@@H]2CC[C@H]1CN(c1nc(OCC34CCCN3CCC4)nc3c(F)c(-c4cccc5cccc(F)c45)ncc13)C2 [Example 17, (1R,5S,8r)-3-(8-fluoro-7-(8-fluoronaphthalen-1-yl)-2-((tetrahydro-1H-pyrrolizin-7a(5H)-yl)methoxy)pyrido[4,3-d]pyrimidin-4-yl)-3-azabicyclo[3.2.1]octane-8-carbaldehyde]
128	43300	> 100000	O=C(Oc1cccnc1)C1CCN(c2nc(OCC34CCCN3CCC4)nc3c(F)c(-c4cccc5cccc(F)c45)ncc23)CC1 [Example 32, pyridin-3-yl 1-(8-fluoro-7-(8-fluoronaphthalen-1-yl)-2-((tetrahydro-1H-pyrrolizin-7a(5H)-yl)methoxy)pyrido[4,3-d]pyrimidin-4-yl)piperidine-4-carboxylate]
7890	> 100000	> 100000	O=C(Oc1cccc(F)c1F)C1CCN(c2nc(OCC34CCCN3CCC4)nc3c(F)c(-c4cccc5cccc(F)c45)ncc23)CC1 [Example 34, 2,3-difluorophenyl 1-(8-fluoro-7-(8-fluoronaphthalen-1-yl)-2-((tetrahydro-1H-pyrrolizin-7a(5H)-yl)methoxy)pyrido[4,3-d]pyrimidin-4-yl)piperidine-4-carboxylate]
> 100000	> 100000	> 100000	COC(=O)[C@@H]1CCN(c2nc(OCC34CCCN3CCC4)nc3c(F)c(-c4cccc5cccc(F)c45)ncc23)C[C@@H]1O [Example 47, methyl (3R,4R)-1-(8-fluoro-7-(8-fluoronaphthalen-1-yl)-2-((tetrahydro-1H-pyrrolizin-7a(5H)-yl)methoxy)pyrido[4,3-d]pyrimidin-4-yl)-3-hydroxypiperidine-4-carboxylate]
30300	56500	25400	O=C(Oc1ccccc1)C1CCCN(c2nc(OCC34CCCN3CCC4)nc3c(F)c(-c4cccc5cccc(F)c45)ncc23)C1 (stereo not drawn) [Example 51, phenyl 1-(8-fluoro-7-(8-fluoronaphthalen-1-yl)-2-((tetrahydro-1H-pyrrolizin-7a(5H)-yl)methoxy)pyrido[4,3-d]pyrimidin-4-yl)piperidine-3-carboxylate]
7290	20400	20400	O=C(Oc1ccc(F)c(F)c1)[C@@H]1CCN(c2nc(OCC34CCCN3CCC4)nc3c(F)c(-c4cccc5cccc(F)c45)ncc23)C[C@@H]1O [Example 37, 3,4-difluorophenyl (3R,4R)-1-(8-fluoro-7-(8-fluoronaphthalen-1-yl)-2-((tetrahydro-1H-pyrrolizin-7a(5H)-yl)methoxy)pyrido[4,3-d]pyrimidin-4-yl)-3-hydroxypiperidine-4-carboxylate]
